Test results as given in PubChem BioAssay (NCI).
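48-hour exposure; five concentrations; linearly interpolated endpoints. GI50 = concentration required for 50% inhibition of growth. TGI marks complete inhibition of growth.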 Where a SMILES comes first, the peptide text is derived from it. [ ]: non-standard residue; d: D form. The star is where a group is joined. mTyr = N[CH](Cc1cccc(O)c1)C(=O)O; Cbz = O=C(OCc1ccccc1)*; OBn = c1ccc(CO*)cc1

How the values were obtained:
Experiment in all cases: NCI anticancer screen, dose series, 48 h
[1] = tested on: ACHN renal
[2] = tested on: OVCAR-5 ovarian
[3] = tested on: PC-3 prostate
[4] = tested on: SR leukemia
[5] = tested on: CCRF-CEM leukemia
[6] = tested on: DU-145 prostate
[7] = tested on: OVCAR-4 ovarian
[8] = tested on: SF-295 CNS

Compound | TGI [1] | TGI [2] | TGI [3] | TGI [4] | TGI [5] | TGI [6] | TGI [7] | TGI [8] | GI50 [1] | GI50 [6] | GI50 [2] | GI50 [3] | GI50 [8]
COC(=O)C(Cc1cccc(O)c1)NC(=O)C(CC(=O)OCc1ccccc1)NC(=O)OCc1ccccc1 (stereo not given) (Cbz-Asp(OBn)-[mTyr]-OMe; configuration not given here) | > 100 µM | > 100 µM | > 100 µM | > 100 µM |  |  |  |  |  |  |  |  | 
COC(=O)c1c(OC(C)=O)ccc2c1c1c(OC(C)=O)c3ccccc3c(OC(C)=O)c1n2Cc1ccccc1 | 47.1 µM | 19.8 µM | 32 µM | > 50 µM | 45 µM | 45.5 µM | 29.6 µM | 10.9 µM |  |  |  |  | 
CC1=NN(C(=O)CSc2nc3ccc(I)cc3c(=O)n2Cc2ccccc2)C(=O)C1 | > 100 µM | > 100 µM | 49.7 µM | 74 µM | > 100 µM | > 100 µM | 87.8 µM | 63.9 µM |  |  |  |  | 
O=C(CC(=O)Nc1ccccc1)N/N=C/c1cc(N=Nc2ccc(Br)cc2)ccc1O |  |  |  | 9.75 µM | 5.3 µM | > 10 µM | > 10 µM |  |  |  |  |  | 
CCN(CC)Cc1sc2nc3ccccc3n2c1-c1ccc(OC)cc1 | > 100 µM | > 100 µM | > 100 µM |  | 67.6 µM | > 100 µM | > 100 µM | > 100 µM |  |  |  |  | 
Brc1ccc(-c2cn3ccncc3n2)cc1 | > 100 µM | > 100 µM | > 100 µM | > 100 µM | > 100 µM | > 100 µM | > 100 µM | > 100 µM |  |  |  |  | 
CC(C)(C)OC(=O)NCCC1CN(C(=O)c2ccccc2)c2ccccc21 (stereo not given) | > 100 µM | > 100 µM | > 100 µM | > 100 µM |  | > 100 µM | > 100 µM | > 100 µM |  |  |  |  | 
COc1nc(N)c(N=CC(OC(C)=O)C(OC(C)=O)C(COC(C)=O)OC(C)=O)c(=O)n1C (stereo not given) | > 100 µM | > 100 µM | > 100 µM | > 100 µM | > 100 µM | > 100 µM | > 100 µM | > 100 µM |  |  |  |  | 
COc1ccc(N=C2C(=Nc3ccc(OC)cc3)N(c3ccccc3)C(=S)N2N=C=C2Sc3ccccc3N2C)cc1 | > 100 µM | > 100 µM | > 100 µM | > 100 µM |  | > 100 µM |  | > 100 µM |  |  |  |  | 
Cc1ccc(N=Nc2c(O)c(C(=O)Nc3ccccc3)cc3ccccc23)c([N+](=O)[O-])c1 | > 100 µM | > 100 µM | > 100 µM |  | > 100 µM | > 100 µM | > 100 µM | > 100 µM |  |  |  |  | 
COc1ccc(CSc2ccccc2Cn2cccc2)cc1OC | > 100 µM | > 100 µM |  | > 100 µM | > 100 µM | > 100 µM | > 100 µM | > 100 µM |  |  |  |  | 
CC(C)=C/C=C1/CS(=O)(=O)C=C1C | > 100 µM | > 100 µM | > 100 µM |  | > 100 µM | > 100 µM |  | > 100 µM |  |  |  |  | 
O[C@H]1[C@H](O)[C@@H](O)[C@@]2(O)C[C@@H](O)[C@@H]1N2 | > 100 µM |  | > 100 µM | > 100 µM | > 100 µM | > 100 µM | > 100 µM | > 100 µM |  |  |  |  | 
CC(C)(CC(O)C#N)/[N+]([O-])=[N+](\[O-])C(C)(C)CC(O)C#N (stereo not given) | 74.5 µM | 97.2 µM | > 100 µM | 49.5 µM |  | 92.9 µM | 81 µM | > 100 µM |  |  |  |  | 
CC(C)C1=CC23CCC4C(C)(C(=O)O)CCCC4(C)C2CC1C1C(=O)N(c2ccc(C(=O)O)cc2)C(=O)C13 (stereo not given) | > 100 µM |  | > 100 µM |  |  | > 100 µM | > 100 µM | > 100 µM |  |  |  |  | 
O=C1C[C@@H](c2ccccc2)O[C@@H](c2ccccc2)C1 |  | > 100 µM | > 100 µM |  | > 100 µM | > 100 µM | > 100 µM | > 100 µM |  |  |  |  | 
Fc1ccccc1C1SCc2nc3cc4ccccc4cc3n21 (stereo not given) | > 100 µM | > 100 µM | > 100 µM |  | > 100 µM | > 100 µM | > 100 µM | > 100 µM |  |  |  |  | 
CC1OC(O[C@H]2/C=C/C=C/C=C/C=C/C=C/C=C/C=C/[C@H](C)[C@@H](O)[C@@H](C)[C@H](C)OC(=O)CC(O)CC(O)CCC(O)C(O)CC(O)C[C@]3(O)C[C@H](O)C(C(=O)O)C(C2)O3)C(O)[C@H](N)C1O (stereo not given in full) | 3.18 µM | 16.8 µM | 3.92 µM |  | > 100 µM | 7.22 µM |  | 38 µM | 1.68 µM | 2.8 µM | 3.88 µM | 1.81 µM | 18.6 µM
CCC[C@H](C)C[C@H](C)C[C@H](C)/C=C(\C)[C@@H](O)[C@@H](C)C(=O)CC | 39 µM | 34.1 µM | 37.2 µM |  | 52.8 µM | 43.4 µM | 36.8 µM | 37.9 µM |  |  |  |  | 
c1ccc(CSCCc2ccncc2)cc1 | > 100 µM | > 100 µM | > 100 µM |  | > 100 µM | > 100 µM | > 100 µM | > 100 µM |  |  |  |  | 
COc1ccc2oc(=N)c(C(=O)Nc3ccccn3)cc2c1 | > 100 µM | > 100 µM | > 100 µM | > 100 µM | > 100 µM | > 100 µM | > 100 µM |  |  |  |  |  | 
CCOC(=O)[C@H](Cc1ccc(O)cc1)N=C1[C@H]2CCC[C@]1(O)[C@@](C)([N+](=O)[O-])C2 | > 100 µM | > 100 µM |  | > 100 µM | > 100 µM | > 100 µM | > 100 µM | > 100 µM |  |  |  |  | 
O=[As](O)(O)c1ccc(N=Nc2ccc(O)cc2)cc1 | > 100 µM | > 100 µM | > 100 µM |  | > 100 µM | > 100 µM | > 100 µM | > 100 µM |  |  |  |  | 
CCOC(=O)c1ccc(C(=O)C(C(C)=O)C(=O)OC(C)(C)C)[nH]1 (stereo not given) | > 100 µM | > 100 µM | > 100 µM | > 100 µM |  | > 100 µM | > 100 µM | > 100 µM |  |  |  |  | 
Cc1n[nH]c(=O)n1/N=C/c1ccc([N+](=O)[O-])o1 | 28.7 µM | 53.1 µM | > 100 µM |  | > 100 µM | 22.3 µM | 32.3 µM | > 100 µM |  |  |  |  | 
COc1cccc(NC(=O)C(C#N)=C(SC)SC)c1 | > 100 µM | > 100 µM | > 100 µM |  | > 100 µM |  | > 100 µM | > 100 µM |  |  |  |  | 
CC(C)(C)c1cc(C2COC(c3cc(C(C)(C)C)c(O)c(C(C)(C)C)c3)CO2)cc(C(C)(C)C)c1O (stereo not given) | > 100 µM | > 100 µM | > 100 µM |  | > 100 µM | > 100 µM | > 100 µM | > 100 µM |  |  |  |  | 
